Experimental data published in PMC5584760, “Rational design of drug-like compounds targeting Mycobacterium marinum MelF protein” (PLoS ONE, 2017).
In brackets after ≈: the same amount, converted by molar mass. Several values for one entry are separate records, joined by “and”; a condition that tells them apart may be missing. Equal entries are not always repeated. Where two headings read alike, the source gives them in different places.

Assays:
M. tuberculosis [1] = experiment: MBC of combinations of drugs (RIF/INH) and inhibitors; type: cell-based, M. tuberculosis H37Rv; conditions: for bactericidal effect in combination with RIF against M. tuberculosis: compared with RIF alone
M. marinum [2] = experiment: MBC by CFU assay; type: cell-based, M. marinum strain M; conditions: for MBC, M. marinum / MBC: CFU assay, 48 h, median (range) of three independent experiments; for MBC/MIC, M. marinum: ratio, bactericidal when ≤ 4; for MBC: Mycobacterium marinum
M. marinum [3] = experiment: MIC by resazurin microtiter plate assay (REMA); type: cell-based, M. marinum strain M; conditions: 48 h, ~5 X 10^6/well, median (range) of three independent experiments; for MIC: Mycobacterium marinum
purified MelF = purified MelF (Mycobacterium marinum, UniProt Q5SDQ6); experiment: Ki determination by Dixon plots; type: biochemical; conditions: for Ki: Dixon plots, substrate 50, 100 and 150 μM; for type of inhibition (Dixon's plot): intersection of Dixon's plots
purified MelF, sequence (Q5SDQ6 entry or part of it): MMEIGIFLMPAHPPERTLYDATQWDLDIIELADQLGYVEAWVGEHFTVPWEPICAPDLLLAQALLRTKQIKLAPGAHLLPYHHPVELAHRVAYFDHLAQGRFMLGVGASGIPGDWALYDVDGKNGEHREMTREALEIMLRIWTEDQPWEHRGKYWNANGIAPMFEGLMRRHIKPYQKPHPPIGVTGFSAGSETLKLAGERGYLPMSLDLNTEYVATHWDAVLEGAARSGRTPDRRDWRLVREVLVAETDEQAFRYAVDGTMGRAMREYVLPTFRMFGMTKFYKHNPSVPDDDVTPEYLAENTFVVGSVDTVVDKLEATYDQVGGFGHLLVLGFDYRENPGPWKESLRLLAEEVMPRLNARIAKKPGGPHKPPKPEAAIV
Description: The enzyme activity was assayed by monitoring a decrease in absorption of NADH (nicotinamide adenine dinucleotide) at 340 nm (ε = 6.22 X 10^3 M^-1cm^-1) in 50 mM Tris-Cl, pH 7.4 at 25°C. The steady state kinetic measurements were performed in a 1-cm path length cuvette in a final volume of 1mL according to the method of Kendrew et al. with slight modifications. 300μM of NADH and 80μM of FAD (flavin adenine dinucleotide) were added and the assay was initiated with the addition of 100 μg (6.09× 10^−10 mole) of enzyme present in WCL/purified MelF. The reaction was followed at 25°C for 5 min. The FAD was kept in the dark to prevent photo-reduction. The specific activity of the enzyme was calculated as Units/mg = ΔA340/min/6.22×mg enzyme/ mL reaction mixture Where ΔA340 represents a change in absorbance of NADH at 340 nm.
Ki values were calculated using Dixon plots, where inverse of Vmax values were plotted against the inhibitor concentration using different substrate concentrations.

HeLa cells = experiment: MTT cytotoxicity assay; type: cell-based, Human; conditions: 20 h
Description: The MTT (3-(4, 5-dimethyl thiazol-2yl)-2, 5-diphenyl tetrazolium bromide) assay was employed to assess the cytotoxicity of the inhibitors. HeLa cells (Human cervical epithelial cells) were plated at a concentration of 1×10^5/well in 100 μL of minimal essential medium (MEM) supplemented with 10% heat-inactivated fetal bovine serum (FBS) in 96-well plates. After overnight incubation at 37°C in 5% CO2 incubator, media was removed and the inhibitors were added in 100 μL of MEM + 10% heat-inactivated FBS at 1X and 5 X MIC concentrations. After incubation for 20 h, the cells were washed thrice with warm MEM (without FBS) and 200 μL of MTT (5mg/mL) was added. The plates were further incubated for 4 h, followed by the addition of 50 μL of DMSO (solubilizing reagent) per well, mixed thoroughly by a micropipette and left for 45 s. Presence of viable cells was visualized by the development of purple color due to formation of formazan crystals. The OD values were read at 595 nm using DMSO as a blank. A standard graph was plotted between the concentration of inhibitors and the relative cell viability.
Cell viability (%) = Test OD /Control ODX 100

M. tuberculosis [4] = experiment: MIC by resazurin microtiter plate assay (REMA); type: cell-based, M. tuberculosis H37Rv; conditions: 96 h, ~5 X 10^6/well, median (range) of three independent experiments; for MIC: Mycobacterium tuberculosis
M. tuberculosis [5] = experiment: MBC by CFU assay; type: cell-based, M. tuberculosis H37Rv; conditions: for MBC, M. tuberculosis / MBC: CFU assay, 96 h, median (range) of three independent experiments; for MBC/MIC, M. tuberculosis: ratio, bactericidal when ≤ 4; for MBC: Mycobacterium tuberculosis
M. marinum [6] = experiment: Resazurin drugs combination microtiter assay (RIF/INH + inhibitor); type: cell-based, M. marinum strain M; conditions: for FICI in combination with INH, M. marinum: synergistic inhibitory effect
M. tuberculosis [7] = experiment: as above; type: cell-based, M. tuberculosis H37Rv; conditions: for FICI in combination with INH, M. tuberculosis: synergistic inhibitory effect
[8] = at both 1X and 5X MIC concentrations

## 2,2'-[3-(3-methoxyphenyl)-1,2-propanediyl]bis-1H-benzimidazole [compound 9125618]
M. tuberculosis [1]
  bactericidal effect in combination with RIF against M. tuberculosis: enhanced bactericidal effect
M. marinum [2]
  MBC, M. marinum: 37.61 (37.61) μM
  MBC/MIC, M. marinum: 2
M. marinum [3]
  MIC, M. marinum: 9.57–19.39 μM and 18.80 (9.40–18.80) μM
Purified MelF; read-out: Ki
  Ki: 24 µM and 25 µM
Purified MelF
  type of inhibition (Dixon's plot): noncompetitive inhibition
HeLa cells; 5X MIC concentration
  cytotoxicity in HeLa cells: ~ 18%
M. tuberculosis [4]
  MIC, M. tuberculosis: 32.68–38.77 μM and 37.61 (18.80–37.61) μM
M. tuberculosis [5]
  MBC, M. tuberculosis: 37.61 (37.61) μM
  MBC/MIC, M. tuberculosis: 1

## 2-{[(2-methyl-6-phenyl-4-pyrimidinyl)thio]methyl}-1H-benzimidazole [compound 6513745]
M. marinum [2]
  MBC, M. marinum: 38.77 (19.39–38.77) μM
  MBC/MIC, M. marinum: 2
Purified MelF; read-out: Ki
  Ki: 18 µM
Purified MelF
  type of inhibition (Dixon's plot): noncompetitive inhibition
HeLa cells; [8]
  cytotoxicity in HeLa cells: not cytotoxic
M. tuberculosis [4]
  MIC, M. tuberculosis: 32.68–38.77 μM and 38.77 (19.39–38.77) μM
M. marinum [6]; in combination with INH
  combined effect with INH against M. marinum: synergistic inhibitory effect
M. marinum [6]
  FICI in combination with INH, M. marinum: 0.276
M. tuberculosis [5]
  MBC, M. tuberculosis: 38.77 (19.39–38.77) μM
  MBC/MIC, M. tuberculosis: 1

## NNC(=O)c1ccncc1 [INH, Isoniazid, reference compound]
M. marinum [2]
  MBC: 4.53 µM (≈ 0.621 µg/mL)
  MBC/MIC, M. marinum: 1
M. marinum [3]
  MIC: 4.53 µM (≈ 0.621 µg/mL)
M. tuberculosis [4]
  MIC: 2.27 µM (≈ 0.311 µg/mL)
M. tuberculosis [5]
  MBC: 2.27 µM (≈ 0.311 µg/mL)
  MBC/MIC, M. tuberculosis: 1

## CO[C@H]1/C=C/O[C@@]2(C)Oc3c(C)c(O)c4c(O)c(c(/C=N/N5CCN(C)CC5)c(O)c4c3C2=O)NC(=O)/C(C)=C\C=C\[C@H](C)[C@H](O)[C@@H](C)[C@@H](O)[C@@H](C)[C@H](OC(C)=O)[C@@H]1C [RIF, Rifampicin, reference compound]
M. marinum [2]
  MBC: 0.95 µM (≈ 0.782 µg/mL)
  MBC/MIC, M. marinum: 2
M. marinum [3]
  MIC: 0.475 µM (≈ 0.391 µg/mL)
M. tuberculosis [4]
  MIC: 0.048 µM (≈ 0.0395 µg/mL)
M. tuberculosis [5]
  MBC: 0.095 µM (≈ 0.0782 µg/mL)
  MBC/MIC, M. tuberculosis: 2

## CC(C)COc1ccc(-c2nn(-c3ccccc3)cc2CO)cc1 [compound 5175552, [3-(4-isobutoxyphenyl)-1-phenyl-1H-pyrazol-4-yl]methanol]
M. tuberculosis [7]; in combination with INH
  combined effect with INH against M. tuberculosis: synergistic inhibitory effect
M. tuberculosis [7]
  FICI in combination with INH, M. tuberculosis: 0.257–0.263
M. tuberculosis [1]
  MBC/MIC ratio in combination with RIF, M. tuberculosis: 1
  bactericidal effect in combination with RIF against M. tuberculosis: enhanced bactericidal effect
M. marinum [2]
  MBC, M. marinum: 6.76 (6.76) μM
  MBC: 6.76 µM (≈ 2.18 µg/mL)
  MBC/MIC, M. marinum: 2
M. marinum [3]
  MIC, M. marinum: 3.38 (3.38) μM
  MIC: 3.38 µM (≈ 1.09 µg/mL)
Purified MelF; Ki
  Ki: 68 µM
Purified MelF
  type of inhibition (Dixon's plot): competitive inhibition
HeLa cells; [8]
  cytotoxicity in HeLa cells: not cytotoxic
M. tuberculosis [4]
  MIC, M. tuberculosis: 13.51 (13.51–27.02) μM
  MIC: 13.5 µM (≈ 4.36 µg/mL)
M. tuberculosis [5]
  MBC, M. tuberculosis: 27.02 (13.51–27.02) μM
  MBC: 27 µM (≈ 8.71 µg/mL)
  MBC/MIC, M. tuberculosis: 2

## c1ccc(CC(Cc2nc3ccccc3[nH]2)c2nc3ccccc3[nH]2)cc1 (centres unmarked) [compound 5255825, 2,2'-(3-phenyl-1,2-propanediyl)bis-1H-benzimidazole]
M. tuberculosis [7]
  FICI in combination with INH, M. tuberculosis: 0.257–0.263
M. marinum [2]
  MBC: 35.5 µM (≈ 12.5 µg/mL)
  MBC/MIC, M. marinum: 2
M. marinum [3]
  MIC, M. marinum: 17.74 (8.87–17.74) μM
  MIC: 9.57 to 19.4 µM (≈ 3.37 to 6.83 µg/mL)
Purified MelF; Ki
  Ki: 4 µM
Purified MelF
  type of inhibition (Dixon's plot): competitive inhibition
HeLa cells; [8]
  cytotoxicity in HeLa cells: cytotoxic
M. tuberculosis [4]
  MIC, M. tuberculosis: 35.47 (17.74–35.47) μM
  MIC: 32.7 to 38.8 µM (≈ 11.5 to 13.7 µg/mL)
M. marinum [6]
  FICI in combination with INH, M. marinum: 0.276
M. tuberculosis [5]
  MBC: 35.5 µM (≈ 12.5 µg/mL)
  MBC/MIC, M. tuberculosis: 1

## CCC(C)c1ccc(OCCSc2nc3ccccc3[nH]2)cc1 (centres unmarked) [compound 6492687, 2-{[2-(4-sec-butylphenoxy)ethyl]thio}-1H-benzimidazole]
M. tuberculosis [7]
  FICI in combination with INH, M. tuberculosis: 0.257–0.263
M. marinum [2]
  MBC: 38.3 µM (≈ 12.5 µg/mL)
  MBC/MIC, M. marinum: 4
M. marinum [3]
  MIC, M. marinum: 9.57 (9.57) μM
  MIC: 9.57 to 19.4 µM (≈ 3.12 to 6.33 µg/mL)
Purified MelF; Ki
  Ki: 25 µM and 24 µM
Purified MelF
  type of inhibition (Dixon's plot): competitive inhibition
HeLa cells; [8]
  cytotoxicity in HeLa cells: cytotoxic
M. tuberculosis [4]
  MIC, M. tuberculosis: 38.28 (19.14–38.28) μM
  MIC: 32.7 to 38.8 µM (≈ 10.7 to 12.7 µg/mL)
M. tuberculosis [5]
  MBC: 38.3 µM (≈ 12.5 µg/mL)
  MBC/MIC, M. tuberculosis: 1

## N~1~,N~1~-diethyl-N~4~-{6-methoxy-2-[2-(4-nitrophenyl)vinyl]-4-quinolinyl}-1,4-pentanediamine [compound 5255829]
M. marinum [2]
  MBC, M. marinum: 32.68 (32.68) μM
  MBC/MIC, M. marinum: 2
M. marinum [3]
  MIC, M. marinum: 9.57–19.39 μM and 16.30 (8.15–16.30) μM
Purified MelF; read-out: Ki
  Ki: 9 µM
Purified MelF
  type of inhibition (Dixon's plot): competitive inhibition
HeLa cells; [8]
  cytotoxicity in HeLa cells: not cytotoxic
M. tuberculosis [4]
  MIC, M. tuberculosis: 32.68–38.77 μM and 32.68 (32.68) μM
M. tuberculosis [5]
  MBC, M. tuberculosis: 32.68 (32.68) μM
  MBC/MIC, M. tuberculosis: 1
